Measured values as given in PMC8580050, “Improvement of the antimicrobial potency, pharmacokinetic and pharmacodynamic properties of albicidin by incorporation of nitrogen atoms” (Chemical Science, 2021).
Converted amounts (≈) assume the structure as drawn.

How the values were obtained:
E. coli DSM 1116 = assay: MIC determination (broth microdilution); assay type: cell-based, Escherichia coli; details: Escherichia coli, DSM1116
Protocol: (§1) 1.1.1 In vitro experiments
(§2) Determination of Minimal inhibitory concentrations (MIC)
(§3) Approved Standard M07-A9.1
(§4) CFU mL-1. […] Albicidin and […]
(§5) and serially diluted in DMSO (100%). […]
(§6) in 0.1 N HCL, respectively.
(§7) One row of each well plate served as a […]
(§8) sterility control (only MHB II-media). […]
(§9) adding 5 µL DMSO to several wells. […]
(§10) for growth inhibition by naked eye.
(§11) Microorganisms and Cell Cultures (DSMZ): […]

[1] = test system: Salmonella Kentucky (ciprofloxacin resistant clinical isolate); assay: microbe, parasite or virus in culture; assay type: cell-based; details: Salmonella enterica
Protocol: as §1, §2, §3, §4, §5, §6, §7, §8, §9, §10, §11
(§12) Dr. Werner (Robert-Koch-Institut, Wernigerode, Germany): […]

[2] = test system: K. pneumoniae (ciprofloxacin resistant clinical isolate); assay: microbe, parasite or virus in culture; assay type: cell-based; details: Klebsiella pneumoniae
Protocol: as §1, §2, §3, §4, §5, §6, §7, §8, §9, §10, §11, §12

E. coli BW25113 = assay: MIC determination (broth microdilution); assay type: cell-based; details: Escherichia coli
Protocol: as §1, §2, §3, §4, §5, §6, §7, §8, §9, §10, §11

B. subtilis DSM 10 = assay: MIC determination (broth microdilution); assay type: cell-based; details: Bacillus subtilis, DSM10
Protocol: as §1, §2, §3, §4, §5, §6, §7, §8, §9, §10, §11

S. Typhimurium TA100 = assay: MIC determination (broth microdilution); assay type: cell-based, Salmonella typhimurium; details: Salmonella enterica, TYPHIMURIUM
Protocol: as §1, §2, §3, §4, §5, §6, §7, §8, §9, §10, §11

in vitro = details: plasma, pH 7.4
Protocol: Determination of plasma stability
Human and murine plasma aliquots (Sigma-Aldrich, Taufkirchen, Germany) were thawed and subsequently centrifuged at 3000 rpm for 10 min at 4°C. Resulting supernatant was diluted in the same volume of phosphate buffer (pH 7.4) to obtain a plasma concentration of 50% (v/v). Stock solutions of […]
concentration of 20 µM (5% DMSO). Following incubation at 37°C ice-cold methanol containing 30% […]
were centrifuged at 4000 rpm for 20 min at 4°C and 100 µL of supernatant were directly transferred to a fresh MS-vial. Samples were analyzed by LC/MS-MS experiments. Quantification of remaining compounds was performed by an external calibration curve of standard solutions in the range of […]

[3] = test system: S. aureus (ciprofloxacin susceptible clinical isolate); assay: MIC, extended panel; assay type: cell-based; details: Staphylococcus aureus
Protocol: as §1, §2, §3, §4, §5, §6, §7, §8, §9, §10, §11, §12
(§13) for the following 11 pathogenic isolates: […]

Formulation studies = assay type: physicochemical; details: DMSO/PEG400 (10 : 90), 10 mg ml-1
Protocol: of preclinical formulations in a final concentration of 10 mg ml-1. All experimental procedures were carried out in cooperation with Pharmacelsus GmbH (Saarbrucken, Germany) according to Table S6.
1.1.2 Tolerability assessment and pharmacokinetic study
In vivo tolerability studies as well as determinations of pharmacokinetic parameters were carried out in cooperation with Pharmacelsus GmbH (Saarbrucken, Germany).
For tolerability assessment adult male CD-1 mice (RjOrl:SWISS, 7 weeks old) were purchased from Janvier Labs (France). For pharmacokinetic studies 6 weeks old, male CD-1 mice (RjOrl:SWISS, Janvier Labs, France) were used. The animals were allowed to acclimatize for at least seven days before the start of experiments. Housing was realized in a temperature-controlled room (20-24°C) and mice were exposed to a 12h light/dark cycle. Mice had access to food and water ad libitum throughout the study.
All experimental procedures were approved by and conducted in accordance with the regulations of local Animal Welfare authorities (Landesamt für Gesundheit und Verbraucherschutz, Abteilung Lebensmittel- und Veterinärwesen, Saarbrücken, Germany).

[4] = test system: P. aeruginosa (ciprofloxacin resistant clinical isolate); assay: microbe, parasite or virus in culture; assay type: cell-based; details: Pseudomonas aeruginosa
Protocol: as §1, §2, §3, §4, §5, §6, §7, §8, §9, §10, §11, §12, §13

[5] = test system: E. faecium (ciprofloxacin resistant clinical isolate); assay: microbe, parasite or virus in culture; assay type: cell-based; details: Enterococcus faecium
Protocol: as §1, §2, §3, §4, §5, §6, §7, §8, §9, §10, §11, §12, §13

[6] = test system: E. faecium (ciprofloxacin susceptible clinical isolate); assay: microbe, parasite or virus in culture; details: Enterococcus faecium
in vivo = details: male, CD-1, mouse, whole blood, iv, 50 mg/kg
HepG2 cells = assay: in vitro; details: human
Protocol: (§14) Cell proliferation assay (HepG2 cells)
(§15) The assay was performed by the company Eurofins (Taiwan). Cytotoxicity was representatively
(§16) according to a protocol by Ansar et al.27 This is in line with previously published cytotoxicity data on
(§17) GI = growth inhibition; TGI = total growth inhibition; LC = lethal concentration

[7] = Cell proliferation assay (HepG2 cells); details: human
Protocol: as §14, §15, §16, §17

M. luteus DSM1790 = assay: MIC determination (broth microdilution); assay type: cell-based, Micrococcus luteus; details: Micrococcus luteus, DSM1790
Protocol: as §1, §2, §3, §4, §5, §6, §7, §8, §9, §10, §11

M. phlei DSM 750 = assay: MIC determination (broth microdilution); assay type: cell-based, Mycobacterium phlei; details: Mycolicibacterium phlei, DSM750
Protocol: as §1, §2, §3, §4, §5, §6, §7, §8, §9, §10

[8] = test system: S. aureus (ciprofloxacin resistant clinical isolate); assay: microbe, parasite or virus in culture; assay type: cell-based, Staphylococcus aureus; details: Staphylococcus aureus
Protocol: as §1, §2, §3, §4, §5, §6, §7, §8, §9, §10, §11, §12, §13

[9] = test system: Salmonella Kentucky (ciprofloxacin susceptible clinical isolate); assay: MIC, extended panel; assay type: cell-based; details: Salmonella enterica
Protocol: as §1, §2, §3, §4, §5, §6, §7, §8, §9, §10, §11, §12

[10] = test system: E. coli (ciprofloxacin susceptible clinical isolate); assay: MIC, extended panel; assay type: cell-based; details: Escherichia coli
Protocol: as §1, §2, §3, §4, §5, §6, §7, §8, §9, §10, §11, §12

E. coli DNA gyrase = target: T1, E. coli DNA gyrase (Escherichia coli, UniProt P0AES4+P0AES6); assay: E. coli gyrase supercoiling inhibition assay; assay type: biochemical; set-up: key: ↑: for stronger inhibition; ≈: for equal inhibition; ↓: for diminished inhibition compared to albicidin 1; details: constant concentration of 45 nM, compared to albicidin 1
T1 construct: purchased inspiralis Limited, Norwich, UK
T1 sequence (P0AES4 whole entry, one chain of several): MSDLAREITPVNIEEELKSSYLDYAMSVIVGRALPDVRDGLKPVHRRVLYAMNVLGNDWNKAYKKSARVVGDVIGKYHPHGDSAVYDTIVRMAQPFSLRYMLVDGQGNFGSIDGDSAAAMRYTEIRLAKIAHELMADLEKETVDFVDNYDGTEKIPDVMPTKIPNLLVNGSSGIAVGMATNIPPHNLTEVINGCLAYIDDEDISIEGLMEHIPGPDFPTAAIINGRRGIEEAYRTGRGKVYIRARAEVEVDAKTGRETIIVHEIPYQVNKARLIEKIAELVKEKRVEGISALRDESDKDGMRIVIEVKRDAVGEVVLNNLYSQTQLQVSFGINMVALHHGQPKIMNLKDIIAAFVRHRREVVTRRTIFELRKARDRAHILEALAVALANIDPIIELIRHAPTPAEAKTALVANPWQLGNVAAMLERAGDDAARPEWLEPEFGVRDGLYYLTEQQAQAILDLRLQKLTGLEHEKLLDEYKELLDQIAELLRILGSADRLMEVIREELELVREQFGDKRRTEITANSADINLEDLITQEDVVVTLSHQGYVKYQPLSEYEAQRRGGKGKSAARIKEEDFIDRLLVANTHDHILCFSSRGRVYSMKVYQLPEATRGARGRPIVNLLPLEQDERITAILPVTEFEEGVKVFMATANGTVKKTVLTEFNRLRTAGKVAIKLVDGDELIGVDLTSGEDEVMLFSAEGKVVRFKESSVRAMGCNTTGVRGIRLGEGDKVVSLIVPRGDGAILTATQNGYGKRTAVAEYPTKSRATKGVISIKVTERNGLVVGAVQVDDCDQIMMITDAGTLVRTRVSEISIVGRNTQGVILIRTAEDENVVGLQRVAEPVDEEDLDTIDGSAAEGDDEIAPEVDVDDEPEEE
Protocol: Escherichia coli Gyrase Supercoiling Inhibition Assay
loaded on an agarose gel.
2-15. […] Addition of DNA
All derivatives were tested at a concentration of […]

[11] = test system: E. coli (ciprofloxacin resistant clinical isolate); assay: microbe, parasite or virus in culture; assay type: cell-based, Escherichia coli; details: Escherichia coli
Protocol: as §1, §2, §3, §4, §5, §6, §7, §8, §9, §10, §11, §12

[12] = test system: E. coli DSM 1116 + 50% Human Serum; assay: MIC determination in presence of 50% human serum; assay type: cell-based; details: Escherichia coli, DSM1116
From the text: This investigation was completed by assessment of the antibacterial activity in presence of human plasma (50%) (Table 1), since high plasma protein binding can severely impair antibacterial activity and thus efficacy.
as §1, §2, §3, §4, §5, §6, §7, §8, §9, §10, §11

[13] = test system: P. aeruginosa (ciprofloxacin susceptible clinical isolate); assay: MIC, extended panel; assay type: cell-based, Pseudomonas aeruginosa; details: Pseudomonas aeruginosa
Protocol: as §1, §2, §3, §4, §5, §6, §7, §8, §9, §10, §11, §12, §13

[14] = test system: A. baumannii (ciprofloxacin resistant isolate); assay: microbe, parasite or virus in culture; assay type: cell-based, Acinetobacter baumannii; details: Acinetobacter baumannii
Protocol: as §1, §2, §3, §4, §5, §6, §7, §8, §9, §10, §11, §12, §13

[15] = test system: K. pneumoniae (ciprofloxacin susceptible clinical isolate); assay: MIC, extended panel; assay type: cell-based, Klebsiella pneumoniae; details: Klebsiella pneumoniae
Protocol: as §1, §2, §3, §4, §5, §6, §7, §8, §9, §10, §11, §12

[16] = Pharmacokinetic study, i.v.; details: 50 mg kg^−1 i.v., after 24 h

COc1c(NC(=O)c2ccc(NC(=O)c3ccc(NC(=O)[C@H](Cc4c[nH]nn4)NC(=O)c4ccc(NC(=O)/C(C)=C/c5ccc(O)cc5)cc4)cc3)c(OC)c2O)ccc(C(=O)O)c1O [Compound 2, AzaHis-albicidin]
MIC (E. coli DSM 1116): 0.016 µg/mL (≈ 0.0181 µM) | MIC [1]: 0.125 µg/mL (≈ 0.141 µM) | MIC [2]: ≥ 128 µg/mL | MIC (E. coli BW25113): 0.016 µg/mL (≈ 0.0181 µM) | MIC (B. subtilis DSM 10): 0.125 µg/mL (≈ 0.141 µM) | MIC (S. Typhimurium TA100): 0.016 µg/mL (≈ 0.0181 µM) | half-life at 20 µM (in vitro; human): > 4 h | half-life at 20 µM (in vitro; mouse): 1.58 h | MIC [3]: 0.25 µg/mL (≈ 0.283 µM) | appearance in formulation (Formulation studies): clear solution | MIC [4]: 8 µg/mL (≈ 9.04 µM) | MIC [5]: 64 µg/mL (≈ 72.3 µM) | MIC [6]: 0.25 µg/mL (≈ 0.283 µM) | half-life (in vivo): 10.1 h | TGI (total growth inhibition) (HepG2 cells): > 16 µM | CC50 [7]: > 16 µM | GI50 [7]: > 16 µM | MIC (M. luteus DSM1790): 1 µg/mL (≈ 1.13 µM) | MIC (M. phlei DSM 750): 2 µg/mL (≈ 2.26 µM) | MIC [8]: 0.5 µg/mL (≈ 0.565 µM) | MIC [9]: 0.063 µg/mL (≈ 0.0712 µM) | MIC [10]: 0.016 µg/mL (≈ 0.0181 µM) | E. coli gyrase inhibition (E. coli DNA gyrase): ≈ | MIC [11]: 0.063 µg/mL (≈ 0.0712 µM) | MIC [12]: 2 µg/mL | MIC [13]: 4 µg/mL (≈ 4.52 µM) | MIC [14]: 2 µg/mL (≈ 2.26 µM) | MIC [15]: 16 µg/mL (≈ 18.1 µM) | plasma level as multiple of MIC for E. coli [16]: higher than 5 times MIC
